Patent publication US7186829B1, “Aryl-substituted heterocyclic enaminones” (Bayer Aktiengesellschaft, priority 1999, dated 2007)

Legend:
[1] = test system: larvae of the mustard beetle (Phaedon cochleariae); assay: Phaedon larvae test; type: in vivo; conditions: cabbage leaves (Brassica oleracea) dipped into preparation of active compound; result in words
Protocol: (§1) Phaedon larvae test • Solvent: 31 parts by weight of dimethylformamide • Emulsifier: I part by weight of alkylaryl polyglycol ether To produce a suitable preparation of active compound, 1 part by weight of active compound is mixed with the stated amounts of solvent and emulsifier, and the concentrate is diluted with emulsifier-containing water to the desired concentration. Cabbage leaves (Brassica oleracea) are treated by being dipped into the preparation of active compound of the desired concentration and populated with larvae of the mustard beetle (Phaedon cochleariae) while the leaves are still moist. After the desired period of time, the kill in % is determined. 100% means that all beetle larvae have been killed; 0% means that none of the beetle larvae have been killed.

[2] = test system: common spider mite (Tetranychus urticae); assay: Tetranychus test (OP resistent/dip treatment); type: in vivo; conditions: bean plants (Phaseolus vulgaris) infested by all stages, dip treatment, OP resistent; result in words
Protocol: Tetranychus test (OP resistent/dip treatment) • Solvent: 30 parts by weight of dimethylformamide • Emulsifier: 1 part by weight of alkylaryl polyglycol ether To produce a suitable preparation of active compound, 1 part by weight of active compound is mixed with the stated amounts of solvent and emulsifier, and the concentrate is diluted with emulsifier-containing water to the desired concentration. Bean plants (Phaseolus vulgaris) which are heavily infested by all stages of the common spider mite (Tetranychus urticae) are dipped into a preparation of active compound of the desired concentration. After the desired period of time, the kill in % is determined. 100% means that all spider mites have been killed; 0% means that none of the spider mites have been killed.

[3] = test system: larva (L3) of the army worm (Spodoptera frugiperda); assay: Spodoptera frugiperda test; type: in vivo; conditions: preparation pipetted onto synthetic feed, result in words
Protocol: Spodoptera frugiperda test • Solvent: 31 parts by weight of dimethylformamide • Emulsifier: 1 part by weight of alkylaryl polyglycol ether To produce a suitable preparation of active compound, 1 part by weight of active compound is mixed with the stated amount of solvent and the stated amount of emulsifier, and the concentrate is diluted with emulsifier-containing water to the desired concentration. A stated amount of the preparation of active compound of the desired concentration is pipetted onto a standardized amount of synthetic feed. In 6 repetitions, in each case one larva (L3) of the army worm (Spodoptera frugiperda) is placed on the feed. After the desired period of time, the kill in % is determined. 100% means that all animals have been killed; 0% means that none of the animals have been killed.

[4] = test system: Heliothis virescens caterpillars; assay: Heliothis virescens test; type: in vivo; conditions: soya bean shoots (Glycine max) dipped; result in words
Protocol: as §1, with “Heliothis virescens” for “Phaedon larvae”, “30” for “31”, “1” for “I”, “Soya bean shoots (Glycine max)” for “Cabbage leaves (Brassica oleracea)”, “Heliothis virescens caterpillars” for “larvae of the mustard beetle (Phaedon cochleariae)”, “caterpillars” for “beetle larvae”

Molecule CCC1COC(C)/C(=C(\C#N)C(=O)c2ccc(Cl)cc2)N1 (centres unmarked) [I-1-a-1, 3-(4-chlorophenyl)-2-(5-ethyl-2-methyl-1,4-oxazinon-3-ylidene)-3-oxopropionitrile] has a melting point of 136 °C.

CC1OCCN/C1=C(/C#N)C(=S)c1cc(C(F)(F)F)cc(C(F)(F)F)c1 (centres unmarked) [I-1-a-2, 3-[3,5-bis(trifluoromethyl)phenyl]-2-(2-methyl-1,4-oxazinan-3-ylidene)-3-thioxopropionitrile] gave a melting point of 195 °C.

N#CC(C(=O)c1ccc(Cl)cc1)=C1COCCN1 [I-1-a-5, 3-(4-chlorophenyl)-2-(1,4-oxazinan-3-ylidene)-3-oxo-propionitrile] gave a melting point of 192 °C.

In the case of N#CC(C(=O)c1cc(C(F)(F)F)cc(C(F)(F)F)c1)=C1CSCCN1 [I-1-a-10, 3-[3,5-bis(trifluoromethyl)phenyl]-2-(1,4-thiazinan-3-ylidene)-3-oxo-propionitrile], the melting point is reported as 182 °C, the “activity (kill in %) against Phaedon cochleariae larvae” value [1] is reported as “good activity” and the “activity (kill in %) against Tetranychus urticae” value [2] is reported as “good activity”.

For CC1OCCNC1=C(C#N)C(=O)c1cc(C(F)(F)F)cc(C(F)(F)F)c1 (centres unmarked) [I-1-a-14, 3-[3,5-bis(trifluoromethyl)phenyl]-2-(2-methyl-1,4-oxazinan-3-ylidene)-3-oxopropionitrile], the melting point was 142 °C, the “activity (kill in %) against Spodoptera frugiperda larvae” value [3] was “good activity” and the “activity (kill in %) against Heliothis virescens caterpillars” value [4] was “good activity”.

In the case of N#C/C(C(=O)c1cc(C(F)(F)F)cc(C(F)(F)F)c1)=C1\CS(=O)(=O)CCN1 [I-1-a-15, 3-[3,5-bis(trifluoromethyl)phenyl]-2-(1,1-dioxo-Iλ^6,4-thiazinan-3-ylidene)-3-oxo-propionitrile], the melting point is reported as 224 to 226 °C.

CC1OCCN/C1=C(/C#N)C(=O)c1cc(-c2ccc(Cl)cc2)cc(C(F)(F)F)c1 (centres unmarked) [I-1-a-37, 3-[3-(4-chlorophenyl)-5-trifluoromethylphenyl]-2-(2-methyl-1,4-oxazinon-3-ylidene)-3-oxopropionitrile] showed a melting point of 119 °C.
